Assay [1] has as its target Proteasome subunit beta type-2 (Homo sapiens, UniProt P49721). Description: Inhibition of catalytic activity of constitutive proteasome 20s subunit beta2 in human Raji cells incubated for 1 hr by BODIPY(FL)-LU-112 probe based competitive activity based protein profiling assay.
A short description of assay [2]: Inhibition of catalytic activity of immunoproteasome 20s subunit beta2 in human Raji cells incubated for 1 hr by BODIPY(FL)-LU-112 probe based competitive activity based protein profiling assay.

In BindingDB's records for doi:10.1021/acs.jmedchem.6b00705 (Leiden Institute of Chemistry, 2016) one finds IC50 data, which are given here for eight molecules.

Some results are limits rather than exact numbers.

As usually defined, the IC50 is the midpoint of a concentration-inhibition curve. The low end stands for greater potency in that assay, the high end for weaker potency in that assay.

Molecule `CC(C)C[C@H](NC(=O)[C@H](Cc1ccccc1)NC(=O)[C@H](CCc1ccccc1)NC(=O)[C@H](Cc1ccccc1)N=[N+]=[N-])C(=O)[C@@]1(C)CO1` yielded a concentration for half-maximal inhibition (IC50) in assay [1] of 60 nM.
As to `CC(C)C[C@H](NC(=O)CN1CCOCC1)C(=O)N[C@@H](C[C@H]1CC[C@H](C2CCCCC2)CC1)C(=O)N[C@@H](Cc1ccccc1)C(=O)N[C@@H](C)C(=O)[C@@]1(C)CO1`, the half-maximal inhibitory concentration (IC50) in assay [1] and in assay [2] was above 100000 nM each time.
As for `CC1=C(C(=O)N[C@H](C)C(=O)N[C@@H](Cc2c[nH]c3ccccc23)C(=O)N[C@@H](CC2CCCCC2)C(=O)[C@@]2(C)CO2)Cc2ccccc21`, the IC50 in assay [1] and in assay [2] was above 1000 nM throughout.
`COc1ccc(C[C@H](NC(=O)[C@H](Cc2ccccc2)N=[N+]=[N-])C(=O)N[C@@H](Cc2ccccc2)C(=O)N[C@@H](CC(C)C)C(=O)[C@@]2(C)CO2)cc1` gave a 50% inhibitory concentration (IC50) in assay [1] of 110 nM.
For `CC(C)C[C@H](NC(=O)[C@H](Cc1ccccc1)NC(=O)[C@H](Cc1ccccc1)NC(=O)[C@H](Cc1ccccc1)N=[N+]=[N-])C(=O)[C@@]1(C)CO1` [(S)-2-azido-N-((S)-1-((S)-1-((S)-4-methyl-1-((R)-2-methyloxiran-2-yl)-1-oxopentan-2-ylamino)-1-oxo-3-phenylpropan-2-ylamino)-1-oxo-3-phenylpropan-2-yl)-3-phenylpropanamide], in assay [1], the half-maximal inhibitory concentration (IC50) worked out at 66 nM.
With `C[C@H](NC(=O)[C@H](Cc1ccccc1)NC(=O)[C@H](C[C@H]1CC[C@@H](c2ccccc2)CC1)NC(=O)[C@H](Cc1ccccc1)N=[N+]=[N-])C(=O)[C@@]1(C)CO1`, the IC50 in assay [1] is above 100000 nM; in assay [2], 300 nM.
On to `CC(C)C[C@H](NC(=O)[C@H](Cc1ccccc1)NC(=O)[C@H](CC1CCC(C)CC1)NC(=O)[C@H](Cc1ccccc1)N=[N+]=[N-])C(=O)[C@@]1(C)CO1` (some centres not stated), for which the concentration for half-maximal inhibition (IC50) in assay [1] is 46 nM.
For the molecule `C[C@H](NC(=O)[C@H](Cc1ccccc1)NC(=O)[C@H](C[C@H]1CC[C@H](c2ccccc2)CC1)NC(=O)[C@H](Cc1ccccc1)N=[N+]=[N-])C(=O)[C@@]1(C)CO1`, the concentration for half-maximal inhibition (IC50) in assay [1] and in assay [2] was above 100000 nM each time.
